Measurements published in patent US12172983B2, “EGFR inhibitors” (Blueprint Medicines Corporation, priority 2019, dated 2024).
pIC50: −log10 of the molar value. Like-named read-outs stand apart in the source and are kept apart here.

Legend:
[1] = biological target: T1, EGFR (L858R T790M C797S) (Homo sapiens, UniProt P00533, C797S/L858R/T790M); assay: Biochemical EGFR inhibition assay (Caliper mobility shift), EGFR LRTMCS mutant; conditions: inhibitory activity against EGFR LRTMCS mutant; apparent IC50; read-out: Ext Enz LRTMCS
T1 construct: purchased SignalChem E10-122VG
Outline: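 Apparent IC50s were derived by plotting percent activity against the log of compound concentration. Activity was measured as phosphopeptide electrophoretically separated from substrate, after reactions at room temperature reached 10% to 20% phosphorylation and were halted with 35 mM EDTA.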

[2] = test system: phosphorylation of EGFR (Tyr1068) in NCI-H1975 cell line that harbors the EGFR L858R T790M mutations; assay: NCI-H1975 pEGFR AlphaLISA assay; format: cell-based; conditions: 4-5 hours incubation, read-out: Ext pEGFR H1975
Outline: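 NCI-H1975 cells (EGFR L858R/T790M) seeded overnight, then treated with compound for 4-5 h at 37 °C/5% CO2. After lysis, p-EGFR (Tyr1068) quantified by AlphaLISA SureFire Ultra with acceptor then donor beads; IC50 fitted from percent inhibition versus log concentration.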

[3] = Homo sapiens, NCI-H1975, inhibition of phosphorylation of mutant EGFR in NCI-H1975 cells
[4] = inhibition of phosphorylation of mutant EGFR in NCI-H1975 cells

T1 sequence (P00533 25-1210 T790M/C797S/L858R): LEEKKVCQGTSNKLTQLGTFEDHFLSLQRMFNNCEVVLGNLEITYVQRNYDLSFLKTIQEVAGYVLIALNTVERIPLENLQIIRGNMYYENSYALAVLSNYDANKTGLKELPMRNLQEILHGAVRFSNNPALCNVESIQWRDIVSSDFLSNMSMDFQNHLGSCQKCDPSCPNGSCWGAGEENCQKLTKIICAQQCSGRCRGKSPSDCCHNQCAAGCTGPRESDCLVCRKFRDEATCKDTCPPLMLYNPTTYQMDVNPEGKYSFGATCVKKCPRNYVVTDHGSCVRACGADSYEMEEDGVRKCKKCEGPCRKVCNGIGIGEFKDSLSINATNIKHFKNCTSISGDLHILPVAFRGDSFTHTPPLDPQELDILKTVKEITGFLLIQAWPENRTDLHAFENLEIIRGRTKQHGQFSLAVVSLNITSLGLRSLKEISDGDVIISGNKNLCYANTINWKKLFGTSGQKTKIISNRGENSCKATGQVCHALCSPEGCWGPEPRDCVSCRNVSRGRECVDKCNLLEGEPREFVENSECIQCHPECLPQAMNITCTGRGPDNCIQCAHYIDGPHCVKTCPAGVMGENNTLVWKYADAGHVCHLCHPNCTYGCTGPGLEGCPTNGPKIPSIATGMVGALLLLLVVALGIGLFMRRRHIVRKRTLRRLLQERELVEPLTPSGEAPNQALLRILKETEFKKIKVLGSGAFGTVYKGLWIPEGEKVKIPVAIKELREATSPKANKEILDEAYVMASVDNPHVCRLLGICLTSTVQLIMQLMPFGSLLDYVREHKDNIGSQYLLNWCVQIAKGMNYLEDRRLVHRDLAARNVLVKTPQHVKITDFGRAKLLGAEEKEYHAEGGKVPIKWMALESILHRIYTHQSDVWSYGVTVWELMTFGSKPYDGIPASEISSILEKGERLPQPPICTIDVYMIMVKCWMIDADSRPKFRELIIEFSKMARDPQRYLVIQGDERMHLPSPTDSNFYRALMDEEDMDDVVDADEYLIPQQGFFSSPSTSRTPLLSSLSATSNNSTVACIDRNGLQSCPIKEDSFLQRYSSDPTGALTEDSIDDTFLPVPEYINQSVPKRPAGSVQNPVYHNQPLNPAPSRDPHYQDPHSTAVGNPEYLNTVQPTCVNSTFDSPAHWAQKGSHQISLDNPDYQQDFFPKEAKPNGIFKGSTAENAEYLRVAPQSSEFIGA

Row | Compound | pIC50 [1] | pIC50 [2, 3] | pIC50 [2, 4]
1 | CC1(C)CN(c2nccc(Nc3cc4c(F)cc(F)c(N5CC(CS(C)(=O)=O)C5)c4cn3)n2)C[C@@H](F)[C@H]1O (single isomer, unassigned) [Compound 86, (4S,5R)-1-[4-[[5,7-difluoro-8-[3-(methylsulfonylmethyl)azetidin-1-yl]-3-isoquinolyl]amino]pyrimidin-2-yl]-5-fluoro-3,3-dimethyl-piperidin-4-ol or (4R,5S)-1-[4-[[5,7-difluoro-8-[3-(methylsulfonylmethyl)azetidin-1-yl]-3-isoquinolyl]amino]pyrimidin-2-yl]-5-fluoro-3,3-dimethyl-piperidin-4-ol] | 7.52 to 7.70 | 7.30 to 7.52 | 
2 | CO[C@H]1CCN(c2nccc(Nc3cc4c(C(C)C)ncc(N5C[C@H](CS(C)(=O)=O)[C@H]5C)c4cn3)n2)C[C@H]1F [Compound 140, N-{2-[(3R,4S)-3-fluoro-4-methoxypiperidin-1-yl]pyrimidin-4-yl}-8-[(2R,3S)-3-(methanesulfonylmethyl)-2-methylazetidin-1-yl]-5-(propan-2-yl)-2,6-naphthyridin-3-amine] | ≥ 7.82 | ≥ 8.00 | 
3 | [2H]C([2H])([2H])O[C@@H]1CCN(c2nccc(Nc3cc4c(C(C)C)cnc(N5CC(CS(C)(=O)=O)C5)c4cn3)n2)C[C@@H]1F [Compound 264, N-{2-[(3S,4R)-3-fluoro-4-(^2H3)methoxypiperidin-1-yl]pyrimidin-4-yl}-8-[3-(methanesulfonylmethyl)azetidin-1-yl]-5-(propan-2-yl)-2,7-naphthyridin-3-amine] | ≥ 7.82 | ≥ 8.00 | 
4 | CCS(=O)(=O)CC1CN(c2ccc(C(C)C)c3cc(Nc4cnnc(N5CC[C@@H](OC)[C@@H](F)C5)n4)ncc23)C1 [Compound 280, 8-{3-[(ethanesulfonyl)methyl]azetidin-1-yl}-N-{3-[(3S,4R)-3-fluoro-4-methoxypiperidin-1-yl]-1,2,4-triazin-5-yl}-5-(propan-2-yl)isoquinolin-3-amine] | ≥ 7.82 | ≥ 8.00 | 
5 | CC(C)c1ccc(N2CC(CS(C)(=O)=O)C2)c2cnc(Nc3ccnc(N4CC[C@H](O)[C@H](C)C4)n3)cc12 (single isomer, unassigned) [Compound 19, (3S,4R)-1-[4-({8-[3-(methanesulfonylmethyl)azetidin-1-yl]-5-(propan-2-yl)isoquinolin-3-yl}amino)pyrimidin-2-yl]-3-methylpiperidin-4-ol or (3R,4S)-1-[4-({8-1,3-(methanesulfonylmethyl)azetidin-1-yl]-5-(propan-2-yl)isoquinolin-3-yl}amino)pyrimidin-2-yl]-3-methylpiperidin-4-ol] | 7.70 to 7.82 |  | 7.70 to 8.00
6 | CCS(=O)(=O)C[C@H]1CN(c2cnc(C(C)C)c3cc(Nc4ccnc(N5CC[C@@H](OCCO)[C@@H](F)C5)n4)ncc23)[C@@H]1C [Compound 298, 2-{[(3S,4R)-1-[4-({8-[(2R,3S)-3-[(ethanesulfonyl)methyl]-2-methylazetidin-1-yl]-5-(propan-2-yl)-2,6-naphthyridin-3-yl}amino)pyrimidin-2-yl]-3-fluoropiperidin-4-yl]oxy}ethan-1-ol] | ≥ 7.82 | ≥ 8.00 | 
7 | CC(C)c1ccc(N2CC(CS(=O)(=O)C(F)F)C2)c2cnc(Nc3ccnc(N4CC[C@@H](O)[C@@](C)(F)C4)n3)cc12 (single isomer, unassigned) [Compound 219] | ≥ 7.82 | ≥ 8.00 | 
8 | CCS(=O)(=O)C[C@H]1CN(c2ccc(F)c3cc(Nc4ccnc(N5CC[C@@H](OC)[C@@H](F)C5)n4)ncc23)[C@@H]1C [Compound 85, 8-[(2R,3S)-3-[(ethanesulfonyl)methyl]-2-methylazetidin-1-yl]-5-fluoro-N-{2-[(3S,4R)-3-fluoro-4-methoxypiperidin-1-yl]pyrimidin-4-yl}isoquinolin-3-amine] | ≥ 7.82 | 7.70 to 8.00 | 
9 | CO[C@H]1CCN(c2nncc(Nc3cc4c(C(C)C)ccc(N5C[C@H](CS(C)(=O)=O)[C@H]5C)c4cn3)n2)C[C@H]1F [Compound 133, N-{3-[(3R,4S)-3-fluoro-4-methoxypiperidin-1-yl]-1,2,4-triazin-5-yl}-8-[(2R,3S)-3-(methanesulfonylmethyl)-2-methylazetidin-1-yl]-5-(propan-2-yl)isoquinolin-3-amine] | ≥ 7.82 | ≥ 8.00 | 
10 | CC(C)c1ccc(N2C[C@H](CS(C)(=O)=O)[C@H]2C)c2cnc(Nc3ccnc(N4CC[C@@H](OCCN(C)C)C(F)(F)C4)n3)cc12 (single isomer, unassigned) [Compound 305, N-{2-[(4S)-4-[2-(dimethylamino)ethoxy]-3,3-difluoropiperidin-1-yl]pyrimidin-4-yl}-8-[(2R,3S)-3-(methanesulfonylmethyl)-2-methylazetidin-1-yl]-5-(propan-2-yl)isoquinolin-3-amine or N-{2-[(4R)-4-[2-(dimethylamino)ethoxy]-3,3-difluoropiperidin-1-yl]pyrimidin-4-yl}-8-[(2R,3S)-3-(methanesulfonylmethyl)-2-methylazetidin-1-yl]-5-(propan-2-yl)isoquinolin-3-amine] | ≥ 7.82 |  | ≥ 8.00
11 | CC(C)c1ccc(N2CC(CS(=O)(=O)CCN(C)C)C2)c2cnc(Nc3ccnc(N4CC[C@@H](O)[C@@](C)(F)C4)n3)cc12 (single isomer, unassigned) [Compound 239] | ≥ 7.82 | ≥ 8.00 | 
12 | CC(C)c1cnc(N2C[C@H](CS(C)(=O)=O)[C@H]2C)c2cnc(Nc3ccnc(N4CC[C@H](OCC(C)(C)O)[C@H](F)C4)n3)cc12 [Compound 259, 1-{[(3R,4S)-3-fluoro-1-[4-({8-[(2R,3S)-3-(methanesulfonylmethyl)-2-methylazetidin-1-yl]-5-(propan-2-yl)-2,7-naphthyridin-3-yl}amino)pyrimidin-2-yl]piperidin-4-yl]oxy}-2-methylpropan-2-ol] | ≥ 7.82 | ≥ 8.00 | 
13 | [2H]C([2H])([2H])O[C@H]1CCN(c2nccc(Nc3cc4c(C5CC5)ccc(N5C[C@H](CS(C)(=O)=O)[C@H]5C)c4cn3)n2)C[C@H]1F [Compound 316, 5-cyclopropyl-N-(2-((3R,4S)-3-fluoro-4-(^2H3)piperidin-1-yl)pyrimidin-4-yl)-8-((2R,3S)-2-methyl-3-((methylsulfonyl)methyl)azetidin-1-yl)isoquinolin-3-amine] | ≥ 7.82 | ≥ 8.00 | 
14 | CC(C)c1nnc(N2CC(CS(C)(=O)=O)C2)c2cnc(Nc3ccnc(N4CC[C@]5(CCO5)C(F)(F)C4)n3)cc12 (single isomer, unassigned) [Compound 209, (S)-N-(2-(5,5-difluoro-1-oxa-7-azaspiro[3.5]nonan-7-yl)pyrimidin-4-yl)-1-isopropyl-4-(3-((methylsulfonyl)methyl)azetidin-1-yl)pyrido[3,4-d]pyridazin-7-amine or (R)-N-(2-(5,5-difluoro-1-oxa-7-azaspiro[3.5]nonan-7-yl)pyrimidin-4-yl)-1-isopropyl-4-(3-((methylsulfonyl)methyl)azetidin-1-yl)pyrido[3,4-d]pyridazin-7-amine] | ≥ 7.82 | 7.30 to 7.52 | 
15 | CC(C)c1ccc(N2C[C@H](CS(C)(=O)=O)[C@H]2C)c2cnc(Nc3ccnc(N4CCC(OCCO)CC4)n3)cc12 [Compound 171, 2-({1-[4-({8-[(2R,3S)-3-(methanesulfonylmethyl)-2-methylazetidin-1-yl]-5-(propan-2-yl)isoquinolin-3-yl}amino)pyrimidin-2-yl]piperidin-4-yl}oxy)ethan-1-ol] | ≥ 7.82 | ≥ 8.00 | 
16 | CCS(=O)(=O)C[C@H]1CN(c2ccc(C(C)C)c3cc(Nc4cnnc(N5CC[C@H](OC)[C@H](F)C5)n4)ncc23)[C@@H]1C [Compound 289, 8-[(2R,3S)-3-[(ethanesulfonyl)methyl]-2-methylazetidin-1-yl]-N-{3-[(3R,4S)-3-fluoro-4-methoxypiperidin-1-yl]-1,2,4-triazin-5-yl}-5-(propan-2-yl)isoquinolin-3-amine] | ≥ 7.82 | ≥ 8.00 | 
17 | C[C@H](CO)c1ccc(N2CC(CS(C)(=O)=O)C2)c2cnc(Nc3ccnc(N4CCC5(CCO5)CC4)n3)cc12 (single isomer, unassigned) [Compound 87, (2S)-2-{8-[3-(methanesulfonylmethyl)azetidin-1-yl]-3-[(2-{1-oxa-7-azaspiro[3,5]nonan-7-yl}pyrimidin-4-yl)amino]isoquinolin-5-yl}propan-1-ol or (2R)-2-{8-[3-(methanesulfonylmethyl)azetidin-1-yl]-3-[(2-{1-oxa-7-azaspiro[3.5]nonan-7-yl}pyrimidin-4-yl)amino]isoquinolin-5-yl}propan-1-ol] | ≥ 7.82 | 7.52 to 7.70 | 
18 | [2H]C([2H])([2H])O[C@@H]1CCN(c2nccc(Nc3cc4c(C(C)C)ncc(N5C[C@H](CS(C)(=O)=O)[C@H]5C)c4cn3)n2)C[C@@H]1F (single isomer, unassigned) [Compound 161, N-{2-[(3S,4R)-3-fluoro-4-(^2H3)methoxypiperidin-1-yl]pyrimidin-4-yl}-8-[(2R,3S)-3-(methanesulfonylmethyl)-2-methylazetidin-1-yl]-5-(propan-2-yl)-2,6-naphthyridin-3-amine or N-{2-[(3R,4S)-3-fluoro-4-(^2H3)methoxypiperidin-1-yl]pyrimidin-4-yl}-8-[(2R,3S)-3-(methanesulrfonylmethyl)-2-methylazetidin-1-yl]-5-(propan-2-yl)-2,6-naphthyridin-3-amine] | ≥ 7.82 | ≥ 8.00 | 
19 | CC(C)c1cnc(N2CC([C@@H](C)S(C)(=O)=O)C2)c2cnc(Nc3ccnc(N4CC[C@@H](O)[C@@](C)(F)C4)n3)cc12 (single isomer, unassigned) [Compound 127] | ≥ 7.82 | ≥ 8.00 | 
